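Following 48 hours of exposure in 96-well plates, responses at five concentrations were used to interpolate endpoints linearly. GI50: concentration for 50% inhibition of growth. Definition used: TGI = concentration required for complete inhibition of growth.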
What was measured:
Assay in all cases: NCI anticancer screen, dose series, 48 h
SR leukemia = test system: SR leukemia
OVCAR-8 ovarian = test system: OVCAR-8 ovarian
DU-145 prostate = test system: DU-145 prostate
MDA-MB-231 breast = test system: MDA-MB-231 breast
SW-620 colon = test system: SW-620 colon
OVCAR-4 ovarian = test system: OVCAR-4 ovarian
HOP-92 NSCLC = test system: HOP-92 NSCLC
HOP-62 NSCLC = test system: HOP-62 NSCLC
HS 578T breast = test system: HS 578T breast
NCI/ADR-RES ovarian = test system: NCI/ADR-RES ovarian
CCRF-CEM leukemia = test system: CCRF-CEM leukemia
ACHN renal = test system: ACHN renal
CAKI-1 renal = test system: CAKI-1 renal
SNB-19 CNS = test system: SNB-19 CNS
UO-31 renal = test system: UO-31 renal
SN12C renal = test system: SN12C renal
SF-539 CNS = test system: SF-539 CNS
SF-295 CNS = test system: SF-295 CNS
SK-OV-3 ovarian = test system: SK-OV-3 ovarian
SNB-75 CNS = test system: SNB-75 CNS
EKVX NSCLC = test system: EKVX NSCLC
NCI-H522 lung = test system: NCI-H522 lung
MDA-MB-435 = test system: MDA-MB-435
MCF7 breast = test system: MCF7 breast
A498 renal = test system: A498 renal
HT29 colon = test system: HT29 colon
SK-MEL-2 melanoma = test system: SK-MEL-2 melanoma
MALME-3M melanoma = test system: MALME-3M melanoma
SK-MEL-28 melanoma = test system: SK-MEL-28 melanoma
NCI-H460 lung = test system: NCI-H460 lung
PC-3 prostate = test system: PC-3 prostate
OVCAR-3 ovarian = test system: OVCAR-3 ovarian
KM12 colon = test system: KM12 colon
OVCAR-5 ovarian = test system: OVCAR-5 ovarian
T-47D breast = test system: T-47D breast
TK-10 renal = test system: TK-10 renal
HCT-15 colon = test system: HCT-15 colon
HL-60(TB) leukemia = test system: HL-60(TB) leukemia
IGROV1 ovarian = test system: IGROV1 ovarian
UACC-257 melanoma = test system: UACC-257 melanoma
A549 NSCLC = test system: A549 NSCLC
RPMI-8226 leukemia = test system: RPMI-8226 leukemia
LOX IMVI melanoma = test system: LOX IMVI melanoma
MOLT-4 leukemia = test system: MOLT-4 leukemia
COLO 205 colon = test system: COLO 205 colon
SK-MEL-5 melanoma = test system: SK-MEL-5 melanoma
NCI-H23 lung = test system: NCI-H23 lung
HCC-2998 colon = test system: HCC-2998 colon
M14 melanoma = test system: M14 melanoma
U251 CNS = test system: U251 CNS
NCI-H226 lung = test system: NCI-H226 lung
UACC-62 melanoma = test system: UACC-62 melanoma
RXF 393 renal = test system: RXF 393 renal
786-0 renal = test system: 786-0 renal
BT-549 breast = test system: BT-549 breast
SF-268 CNS = test system: SF-268 CNS

O=C1Nc2ccc(Cl)cc2/C1=C\c1c(-c2ccc(F)cc2)nc2ccccn12 was tested, and the GI50 (SR leukemia) was 2.92 µM, the TGI (SR leukemia) was greater than 100 µM and the GI50 (OVCAR-8 ovarian) was 2.28 µM. For the same molecule, the TGI (OVCAR-8 ovarian) was 5.99 µM, the GI50 (DU-145 prostate) was 2.67 µM and the TGI (DU-145 prostate) was 7.15 µM. For the same molecule, the GI50 (MDA-MB-231 breast) was 3.5 µM, the TGI (MDA-MB-231 breast) was 36.6 µM and the GI50 (SW-620 colon) was 3 µM. The TGI (SW-620 colon) was 11.7 µM, the GI50 (OVCAR-4 ovarian) was 2.3 µM and the TGI (OVCAR-4 ovarian) was 7.23 µM. For the same molecule, the GI50 (HOP-92 NSCLC) was 1.86 µM, the TGI (HOP-92 NSCLC) was 7.1 µM and the GI50 (HOP-62 NSCLC) was 2.35 µM. The TGI (HOP-62 NSCLC) was 6.32 µM, the GI50 (HS 578T breast) was 2.2 µM and the TGI (HS 578T breast) was 8.37 µM. It also gave a GI50 (NCI/ADR-RES ovarian) of 2.3 µM, a TGI (NCI/ADR-RES ovarian) of 7.06 µM and a GI50 (CCRF-CEM leukemia) of 2.31 µM. The TGI (CCRF-CEM leukemia) was 7.24 µM, the GI50 (ACHN renal) was 3.25 µM and the TGI (ACHN renal) was 11.4 µM. The GI50 (CAKI-1 renal) was 2.25 µM, the TGI (CAKI-1 renal) was 6.45 µM and the GI50 (SNB-19 CNS) was 3.33 µM. It also gave a TGI (SNB-19 CNS) of 27.4 µM, a GI50 (UO-31 renal) of 2.1 µM and a TGI (UO-31 renal) of 5.61 µM. For the same molecule, the GI50 (SN12C renal) was 2.88 µM, the TGI (SN12C renal) was 10.8 µM and the GI50 (SF-539 CNS) was 2.09 µM. It also gave a TGI (SF-539 CNS) of 5 µM, a GI50 (SF-295 CNS) of 1.87 µM and a TGI (SF-295 CNS) of 4.23 µM. The GI50 (SK-OV-3 ovarian) was 2.18 µM, the TGI (SK-OV-3 ovarian) was 5.06 µM and the GI50 (SNB-75 CNS) was 2.08 µM. For the same molecule, the TGI (SNB-75 CNS) was 7.97 µM, the GI50 (EKVX NSCLC) was 3.08 µM and the TGI (EKVX NSCLC) was 58.1 µM. It also gave a GI50 (NCI-H522 lung) of 2.17 µM, a TGI (NCI-H522 lung) of 5.42 µM and a GI50 (MDA-MB-435) of 1.99 µM. It also gave a TGI (MDA-MB-435) of 5.03 µM, a GI50 (MCF7 breast) of 2.71 µM and a TGI (MCF7 breast) of 10.7 µM. It also gave a GI50 (A498 renal) of 1.21 µM, a TGI (A498 renal) of 4.51 µM and a GI50 (HT29 colon) of 2.33 µM. For the same molecule, the TGI (HT29 colon) was 5.41 µM, the GI50 (SK-MEL-2 melanoma) was 2.66 µM and the TGI (SK-MEL-2 melanoma) was 6.17 µM. For the same molecule, the GI50 (MALME-3M melanoma) was 3.8 µM, the TGI (MALME-3M melanoma) was 14.8 µM and the GI50 (SK-MEL-28 melanoma) was 3.33 µM. The TGI (SK-MEL-28 melanoma) was 15.3 µM, the GI50 (NCI-H460 lung) was 2.35 µM and the TGI (NCI-H460 lung) was 5.89 µM. For the same molecule, the GI50 (PC-3 prostate) was 2.43 µM, the TGI (PC-3 prostate) was 8.36 µM and the GI50 (OVCAR-3 ovarian) was 1.89 µM. The TGI (OVCAR-3 ovarian) was 3.8 µM, the GI50 (KM12 colon) was 2.04 µM and the TGI (KM12 colon) was 4.61 µM. It also gave a GI50 (OVCAR-5 ovarian) of 2.21 µM, a TGI (OVCAR-5 ovarian) of 6.72 µM and a GI50 (T-47D breast) of 4.35 µM. It also gave a TGI (T-47D breast) of 19.6 µM, a GI50 (TK-10 renal) of 2.95 µM and a TGI (TK-10 renal) of 7.39 µM. The GI50 (HCT-15 colon) was 3.15 µM, the TGI (HCT-15 colon) was 16.2 µM and the GI50 (HL-60(TB) leukemia) was 1.88 µM. The TGI (HL-60(TB) leukemia) was 4.48 µM, the GI50 (IGROV1 ovarian) was 3.06 µM and the TGI (IGROV1 ovarian) was 8.58 µM. The GI50 (UACC-257 melanoma) was 3.11 µM, the TGI (UACC-257 melanoma) was 16.3 µM and the GI50 (A549 NSCLC) was 2.14 µM. The TGI (A549 NSCLC) was 5.17 µM, the GI50 (RPMI-8226 leukemia) was 2.25 µM and the TGI (RPMI-8226 leukemia) was 7.86 µM. For the same molecule, the GI50 (LOX IMVI melanoma) was 2.06 µM, the TGI (LOX IMVI melanoma) was 4.89 µM and the GI50 (MOLT-4 leukemia) was 2.89 µM. The TGI (MOLT-4 leukemia) was 8.13 µM, the GI50 (COLO 205 colon) was 4.03 µM and the TGI (COLO 205 colon) was 13.6 µM. For the same molecule, the GI50 (SK-MEL-5 melanoma) was 2.38 µM, the TGI (SK-MEL-5 melanoma) was 7.45 µM and the GI50 (NCI-H23 lung) was 2.37 µM. The TGI (NCI-H23 lung) was 7.57 µM, the GI50 (HCC-2998 colon) was 2.01 µM and the TGI (HCC-2998 colon) was 5.1 µM. It also gave a GI50 (M14 melanoma) of 3.02 µM, a TGI (M14 melanoma) of 8.62 µM and a GI50 (U251 CNS) of 2.05 µM. The TGI (U251 CNS) was 5.13 µM, the GI50 (NCI-H226 lung) was 2.07 µM and the TGI (NCI-H226 lung) was 5.21 µM. For the same molecule, the GI50 (UACC-62 melanoma) was 2.58 µM, the TGI (UACC-62 melanoma) was 11.5 µM and the GI50 (RXF 393 renal) was 1.87 µM. The TGI (RXF 393 renal) was 4.2 µM, the GI50 (786-0 renal) was 2.18 µM and the TGI (786-0 renal) was 5.2 µM. For the same molecule, the GI50 (BT-549 breast) was 2.46 µM, the TGI (BT-549 breast) was 6.72 µM and the GI50 (SF-268 CNS) was 2.34 µM. For the same molecule, the TGI (SF-268 CNS) was 6.04 µM.

From PubChem BioAssay (NCI)
